The values that follow come from paper PMC3527569, “Anti-Inflammatory and Vasoprotective Activity of a Retroviral-Derived Peptide, Homologous to Human Endogenous Retroviruses: Endothelial Cell Effects” (PLoS ONE, 2012).

The subject of experiment [1] is nitrate in HUVEC supernatants. Kind of experiment: NO release (nitrate as nitrite) from HUVEC. It counts as cell-based, human. Particulars: 50 µM peptide. As for the experimental part:
HUVEC were grown to 80–90% confluence in 12-well tissue culture plates using defined media provided by Cambrex and supplemented with 10% FBS. Triplicate wells were incubated with either media alone or media containing 50 µM of the indicated peptide. Supernatant samples were removed from each well at 6 h and 24 h post peptide addition and assayed for NO release as measured by the presence of nitrate (converted to nitrite) using a kit supplied by Oxford Biomedical Research (Rochester Hill, MI) according to the manufacturer's instructions.

For the next experiment, the system named is HUVEC. Kind of experiment: [125I]-MN20054 binding/uptake by HUVEC. Also noted: species or system human. Particulars: 100-fold excess unlabeled peptide, 60 min; for inhibition of association of [125I]-MN20054 with HUVEC: 37°C, triplicate wells (Figure 6C). As for the experimental part: For binding/uptake studies on endothelial cell, HUVEC were grown to confluence in 12-well tissue culture plates. Forty pmol of [^125I]-MN20054 (∼20 Ci/mmol) in PBS with 0.5% BSA, pH 7.5, was added in a volume of 1.0 ml in the presence or absence of a 100-fold excess of the indicated competitor. The plates were allowed to incubate for 1 h at 37°C on a rocking platform and the wells were aspirated and washed 3X with 2.0 ml of ice-cold PBS/BSA. One ml of 1.0 N NaOH was added to each well for 30 min at RT to solubilize the cells and then 0.9 ml was removed from each well and counted in a gamma scintillation spectrophotometer.

Another experiment deals with Adhesion. Kind of experiment: Monocyte adhesion to endothelial cells (HUVEC). It counts as cell-based, human. Particulars: calcein-labelled PBMC on HUVEC, TNF-α stimulated; peptide 10 nM-100 µM. As for the experimental part:
Monocyte Adhesion to Endothelial Cells: To each well of a 96-well tissue culture plate was added 100 µL of HUVEC at 2 x 10^4 cells/ml. The plates were then incubated 48 h at 37°C and 5% CO2. PBMC, prepared as above, were washed once in serum-free RPMI-1640 medium. Calcein-AM (Sigma; St. Louis, MO) was added to a final concentration of 10 µg/ml, the cells incubated 30 min at 37°C, and then washed once with serum-free RPMI-1640. The cells were then washed an additional time with Complete Medium and resuspended to a concentration of 3 x 10^6/ml in Complete Medium. For each concentration of compound to be tested, 200 µL of labeled PBMC was incubated with 200 µL of test compound (2X desired final concentration) in polypropylene tubes. Similarly, for each concentration of compound to be tested, 50 µL of medium was removed from a well of the plated HUVEC and 50 µL of medium containing the test compound (2X desired final concentration) was added. Both tubes and plates were incubated 1 h at 37°C in 5% CO2. All peptides were tested at log10 concentrations of 10 nM to 100 µM. […] The plate was then read on a fluorescent spectrophotometer with filter settings of λ = 485exc/530emi. […] The plate was blotted to remove any media and read again on the fluorescent spectrophotometer. Percent of Maximum Adhesion (% Max. Adh.) was calculated as: […]

A further experiment concerns human blood monocytes. As to the kind of experiment: [125I]-MN20054 binding/uptake by human blood monocytes. Particulars: 100-fold molar excess unlabeled peptide, 60 min, 37°C, PBS 0.5% BSA pH 7.5, triplicate, gamma counting (Figure 6A). The procedure: (Perkin Elmer; Boston, MA) using the chloramine-T method. Human blood monocytes (purified by adherence to plastic; 10^6/0.2 ml in PBS with 0.5% BSA, pH 7.5 in 12×75 mm polypropylene tubes) were incubated in triplicate at 37°C for 60 min with 40 pmol [^125I]-MN20054 (∼20 Ci/mmol) in the presence or absence of a 100-fold molar excess of unlabeled peptide. Tubes were shaken gently during the incubation. The contents of each tube were layered onto a layer of 0.8 ml of 10% sucrose in polypropylene Eppendorf tubes and the tubes centrifuged for 5 min at 8,000×g to separate cell-associated from free ligand. The tubes were then snap-frozen in a dry-ice/acetone bath and the bottom of the tube containing the cell pellet cut off and then counted in a gamma-scintillation spectrophotometer. In studies to determine how much of the uptake was due to endocytosis, binding/uptake was performed as described above with the exception that half of the monocytes were pretreated for 30 min at 37°C with cytochalasin B (10 µg/ml; Sigma; St. Louis, MO).

The test system of another experiment is TNF-α. Kind of experiment: LPS-induced TNF-α release by human PBMC (sandwich ELISA). To be noted: human PBMC + LPS (S. typhosa), 18-24 h, 37°C, peptide 10 nM-100 µM in triplicate, IC50 estimated from graph, representative set, one volunteer. It counts as cell-based. The procedure:
Cytokine Assays: One-hundred µL of PBMC (2 x 10^6/ml in Complete Medium) were added to each well of a flat-bottom, 96-well tissue culture plate. To each well was then added 50 µL of media or peptide (4X desired final concentration; in Complete Medium) and 50 µL of lipopolysaccharide (LPS; S. typhosa; Sigma, St. Louis, MO; 400 ng/ml Complete Medium). Each peptide was tested in triplicate at 5 log10 concentrations ranging from 100 µM to 10 nM. Plates were incubate 18-24 h at 37°C in 5% humidified CO2. Plates were then centrifuged and 100 µL of supernatant removed from each well and stored frozen at -80°C until assayed. Cytokines (TNF-α, IL-1β, IL-6, GM-CSF) were measured by sandwich ELISA assays (R & D Systems; Minneapolis, MN) using the manufacturer’s instructions. The released cytokine concentration was determined from a standard curve using recombinant cytokine provided with each kit.

Where a SMILES comes first, the peptide text is derived from it. Bridges are numbered along the chain shown (N, C = ends). Roman numbers before positions name the chains, in order. Some results are limits rather than exact numbers.

For the molecule `CC(C)C[C@H](NC(=O)CNC(=O)CNC(=O)[C@H](CCC(=O)O)NC(=O)[C@H](CCCCN)NC(=O)[C@H](CC(C)C)NC(=O)[C@H](Cc1ccccc1)NC(=O)[C@H](CC(C)C)NC(=O)[C@H](CC(C)C)NC(=O)[C@H](CC(=O)O)NC(=O)[C@H](CC(C)C)NC(=O)CNC(=O)[C@H](CCCNC(=N)N)NC(=O)[C@H](CCCNC(=N)N)NC(=O)[C@H](CC(N)=O)NC(=O)[C@H](CCC(N)=O)NC(=O)[C@@H](N)CC(C)C)C(=O)N[C@@H](CSSC[C@H](NC(=O)[C@H](CC(C)C)NC(=O)CNC(=O)CNC(=O)[C@H](CCC(=O)O)NC(=O)[C@H](CCCCN)NC(=O)[C@H](CC(C)C)NC(=O)[C@H](Cc1ccccc1)NC(=O)[C@H](CC(C)C)NC(=O)[C@H](CC(C)C)NC(=O)[C@H](CC(=O)O)NC(=O)[C@H](CC(C)C)NC(=O)CNC(=O)[C@H](CCCNC(=N)N)NC(=O)[C@H](CCCNC(=N)N)NC(=O)[C@H](CC(N)=O)NC(=O)[C@H](CCC(N)=O)NC(=O)[C@@H](N)CC(C)C)C(=O)O)C(=O)O` [MN10021] (I: H-LQNRRGLDLLFLKEGGLC-OH / II: H-LQNRRGLDLLFLKEGGLC-OH; disulfide I:18-II:18), in experiment [1] (6 h or ON), the “nitrate release (as measured by nitrite assay) from HUVEC” value is “induced nitrate release”. Besides, the “inhibition of binding/uptake of [125I]-MN20054 by HUVEC” value with HUVEC (37°C (Figure 7)) is approximately 75%. Also, the “inhibition of association of [125I]-MN20054 with HUVEC” value with HUVEC is 77%. Moreover, the IC50 is more than 100 µM with Adhesion and 6.2 µM in the experiment with TNF-α. Also, the “inhibition of binding or uptake of [125I]-MN20054 by monocytes” value in the experiment with human blood monocytes was approximately 65%.
Turning to “H-LGGEKLFLLDGRNQLC-OH (disulfide (positions not given here)) [MN20050]”, the “nitrate release, percent of MN10021” value in experiment [1] (6 h and ON incubations) is on record as not above 25%. Moreover, in the experiment on HUVEC, the “inhibition of association of [125I]-MN20054 with HUVEC” value is recorded as “no significant inhibition”. Besides, the IC50 in the experiment with Adhesion and in the experiment on TNF-α was more than 100 µM each time. Besides, in the experiment with human blood monocytes, the “inhibition of binding or uptake of [125I]-MN20054 by monocytes” value is recorded as less than 10%.

The term IC50 denotes the concentration that gives 50% inhibition.
